Here are results for one molecule from patent publication US6939511B2, “Contact lens treating method and composition” (Novartis AG, priority 2000, dated 2005).

This data set concerns L929 mammalian fibroblasts. As to the kind of experiment: MEM (Minimum Essential Medium) USP elution in-vitro toxicity test. The class given is cell-based. The text has this:
In testing the toxicity of compounds of the compositions disclosed in solution, an MEM test procedure is used. The MEM (Minimum Essential Medium) test procedure is employed to evaluate cytoxicity using standard USP (The United States Pharmacopeial Convention) elution assays. A description of the test procedure is provided herein.
The assay provides a means of evaluating extracts of polymeric materials under direct contact conditions. This method is appropriate for high-density materials and for dose-response evaluations.
All reagents should be tissue culture grade or equivalent and should be reconstituted in accordance with manufacturer's instructions using aseptic technique.
Media Preparation: 1× MEM media is prepared by mixing 100 mL Eagle's MEM (with Earl's Salts and Sodium Bicarbonate, without L-glutamine), with 10 mL serum, 1 mL-glutamine solution, and 0.5 mL antibiotic solution (L-glutamine and antibiotic solutions are purchased at correct concentrations and stored frozen at −20° C.±2). Eagle's MEM is a sterile minimum essential medium and is available from Mediatech Celigro. Media may be stored up to 2 weeks at a temperature of 2° C.±2 after L-glutamine and antibiotics are added, or up to 1 month, if only serum is added. Preparation of 0.25% Trypsin: 10× Trypsin is placed in sterile 50 ml centrifuge tubes in 4 ml aliquots and stored frozen at −20° C.±2. Before use, a 4 ml aliquot of 10× trypsin is diluted 1:9 with 36 ml of Dulbecco's Phosphate Buffered Saline (PBS) to yield a 0.25% solution. Dulbecco's Saline is available from Mediatech Cellgro. Sterile 35 mm diameter petri dishes or 6 well tissue culture plates are used. Sterile serological pipets are employed in the procedure. Sterile absorbent material (e.g. Kay-Drys or similar material) is used. L929 mammalian fibroblasts (ATCC cell line CCL1, NCTC clone 929) are employed. […]
Exposure to Test Extracts: Exposure to test extracts is determined examining a representative prepared cell culture plate using the microscope to observe the cell monolayer for correct confluency. […]

With `O.O.O.O.O.O.O=C([O-])c1ccccc1C(=O)O[O-].[Mg+2]` [magnesium perphthalate, magnesium monoperoxyphthalate hexahydrate], where the note is “concentrations below 0.5%”, the cells dead is 2-3%. Also, the “MEM Test Result level” value (concentrations below 0.5%, generally) was 1 (Slight Not more than 20% of cells round and loosely attached—occasional lysed cells present). The “toxicity level MEM” value (concentrations of 0.5% and above, with and without saline) is 4.
